Test results from ChEMBL document CHEMBL1134098, “Bioisosteric determinants for subtype selectivity of ligands for heteromeric GABA(A) receptors” (Bioorg Med Chem Lett, 2001).

What was measured:
[1] = molecular target: T1, GABA-A receptor; alpha-1/beta-3/gamma-2 (Homo sapiens, UniProt P14867+P18507+P28472); experiment: Effective agonist dose for human Gamma-aminobutyric acid A receptor alpha-1-beta-3-gamma-2 expressed in Xenopus oocytes; type: functional, cell-based, Oocyte
T1 sequence (P14867 whole entry): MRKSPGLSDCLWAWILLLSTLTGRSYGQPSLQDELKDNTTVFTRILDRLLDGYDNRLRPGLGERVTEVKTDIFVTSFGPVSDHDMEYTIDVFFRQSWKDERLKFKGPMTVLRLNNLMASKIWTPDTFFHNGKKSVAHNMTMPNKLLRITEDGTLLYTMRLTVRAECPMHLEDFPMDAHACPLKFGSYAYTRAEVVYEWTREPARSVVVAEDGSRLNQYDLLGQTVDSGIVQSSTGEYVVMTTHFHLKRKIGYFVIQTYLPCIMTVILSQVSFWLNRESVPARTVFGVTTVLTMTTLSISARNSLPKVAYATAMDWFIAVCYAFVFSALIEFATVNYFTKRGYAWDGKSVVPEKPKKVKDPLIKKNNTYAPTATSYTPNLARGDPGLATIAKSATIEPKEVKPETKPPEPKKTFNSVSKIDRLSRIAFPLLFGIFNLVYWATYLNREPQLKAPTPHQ
T1 sequence (P18507 whole entry): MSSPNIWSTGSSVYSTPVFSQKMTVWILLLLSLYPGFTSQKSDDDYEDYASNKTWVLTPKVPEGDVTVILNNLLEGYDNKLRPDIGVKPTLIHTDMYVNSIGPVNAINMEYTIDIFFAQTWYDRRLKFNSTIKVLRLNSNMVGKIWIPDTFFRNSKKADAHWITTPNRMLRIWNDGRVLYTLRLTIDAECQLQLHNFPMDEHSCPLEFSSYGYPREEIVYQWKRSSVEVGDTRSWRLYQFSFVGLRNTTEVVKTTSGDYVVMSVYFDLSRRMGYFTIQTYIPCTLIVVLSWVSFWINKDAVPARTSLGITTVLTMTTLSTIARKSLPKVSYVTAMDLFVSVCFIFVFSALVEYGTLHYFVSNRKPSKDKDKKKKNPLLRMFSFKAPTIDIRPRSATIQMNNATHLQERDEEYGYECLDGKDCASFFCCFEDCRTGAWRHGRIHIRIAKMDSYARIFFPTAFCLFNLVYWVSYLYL
T1 sequence (P28472 whole entry): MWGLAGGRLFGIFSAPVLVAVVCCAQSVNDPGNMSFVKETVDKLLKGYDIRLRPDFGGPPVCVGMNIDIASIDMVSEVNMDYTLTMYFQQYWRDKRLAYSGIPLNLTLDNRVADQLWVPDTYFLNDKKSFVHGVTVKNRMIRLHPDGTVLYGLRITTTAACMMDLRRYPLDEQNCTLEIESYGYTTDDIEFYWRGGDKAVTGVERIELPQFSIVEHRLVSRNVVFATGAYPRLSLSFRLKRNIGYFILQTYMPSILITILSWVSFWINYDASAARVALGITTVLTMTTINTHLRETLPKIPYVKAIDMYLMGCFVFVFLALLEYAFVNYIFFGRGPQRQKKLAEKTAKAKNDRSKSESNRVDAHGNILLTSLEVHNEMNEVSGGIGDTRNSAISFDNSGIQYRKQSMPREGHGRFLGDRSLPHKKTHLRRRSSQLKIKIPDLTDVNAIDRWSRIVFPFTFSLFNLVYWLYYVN

[2] = molecular target: T2, GABA-A receptor; alpha-5/beta-3/gamma-2 (Homo sapiens, UniProt P18507+P28472+P31644); experiment: Effective agonist dose for human Gamma-aminobutyric acid A receptor alpha-5-beta-3-gamma-2 expressed in Xenopus oocytes; type: functional, cell-based, Oocyte
T2 sequence (P18507 whole entry): T1 sequence (P18507 whole entry)
T2 sequence (P28472 whole entry): T1 sequence (P28472 whole entry)
T2 sequence (P31644 whole entry): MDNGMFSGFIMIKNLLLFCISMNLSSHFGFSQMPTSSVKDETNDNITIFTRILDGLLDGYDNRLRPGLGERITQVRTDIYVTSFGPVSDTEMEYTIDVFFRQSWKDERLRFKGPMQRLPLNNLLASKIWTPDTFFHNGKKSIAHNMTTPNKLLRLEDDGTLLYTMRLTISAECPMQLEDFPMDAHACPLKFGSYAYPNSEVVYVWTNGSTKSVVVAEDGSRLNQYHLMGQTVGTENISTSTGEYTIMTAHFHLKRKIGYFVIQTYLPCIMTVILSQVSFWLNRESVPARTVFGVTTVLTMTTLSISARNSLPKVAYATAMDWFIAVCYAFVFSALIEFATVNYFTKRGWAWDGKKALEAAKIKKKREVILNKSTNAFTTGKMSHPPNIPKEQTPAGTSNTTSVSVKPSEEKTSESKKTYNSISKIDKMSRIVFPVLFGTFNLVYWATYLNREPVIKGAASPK

[3] = molecular target: GABA-A receptor; alpha-3/beta-3/gamma-2 (Homo sapiens) (UniProt P18507+P28472+P34903); experiment: Maximal response relative to Gamma-aminobutyric acid A against human Gamma-aminobutyric-acid A receptor alpha-3-beta-3-gamma-2 expressed in Xenopus oocytes; type: functional, cell-based; conditions: Oocyte
[4] = molecular target: GABA-A receptor; alpha-5/beta-3/gamma-2 (Homo sapiens) (UniProt P18507+P28472+P31644); experiment: Maximal response relative to Gamma-aminobutyric acid A against human Gamma-aminobutyric-acid A receptor alpha-5-beta-3-gamma-2 expressed in Xenopus oocytes; type: functional, cell-based; conditions: Oocyte
[5] = molecular target: T3, GABA-A receptor; alpha-2/beta-3/gamma-2 (Homo sapiens, UniProt P18507+P28472+P47869); experiment: Agonist activity on human Gamma-aminobutyric acid A receptor alpha-2-beta-3-gamma-2 expressed in Xenopus oocytes; type: functional, cell-based, Oocyte
T3 sequence (P18507 whole entry): T1 sequence (P18507 whole entry)
T3 sequence (P28472 whole entry): T1 sequence (P28472 whole entry)
T3 sequence (P47869 whole entry): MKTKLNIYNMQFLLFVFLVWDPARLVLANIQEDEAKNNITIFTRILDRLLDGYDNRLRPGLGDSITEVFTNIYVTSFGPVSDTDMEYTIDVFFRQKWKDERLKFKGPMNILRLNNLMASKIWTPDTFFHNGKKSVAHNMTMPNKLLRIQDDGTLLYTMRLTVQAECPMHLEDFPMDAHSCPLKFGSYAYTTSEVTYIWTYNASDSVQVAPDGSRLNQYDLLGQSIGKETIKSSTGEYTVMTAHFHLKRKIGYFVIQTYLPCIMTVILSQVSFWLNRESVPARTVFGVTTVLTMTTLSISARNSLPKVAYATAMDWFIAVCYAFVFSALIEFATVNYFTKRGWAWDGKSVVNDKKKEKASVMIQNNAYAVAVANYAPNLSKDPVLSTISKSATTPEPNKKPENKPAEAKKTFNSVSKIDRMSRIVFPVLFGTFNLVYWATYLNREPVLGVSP

[6] = molecular target: T4, GABA-A receptor; alpha-3/beta-3/gamma-2 (Homo sapiens, UniProt P18507+P28472+P34903); experiment: Effective dose for agonist activity on activity on human Gamma-aminobutyric acid A receptor alpha-3-beta-3-gamma-2 expressed in Xenopus oocytes; type: functional, cell-based, Oocyte
T4 sequence (P18507 whole entry): T1 sequence (P18507 whole entry)
T4 sequence (P28472 whole entry): T1 sequence (P28472 whole entry)
T4 sequence (P34903 whole entry): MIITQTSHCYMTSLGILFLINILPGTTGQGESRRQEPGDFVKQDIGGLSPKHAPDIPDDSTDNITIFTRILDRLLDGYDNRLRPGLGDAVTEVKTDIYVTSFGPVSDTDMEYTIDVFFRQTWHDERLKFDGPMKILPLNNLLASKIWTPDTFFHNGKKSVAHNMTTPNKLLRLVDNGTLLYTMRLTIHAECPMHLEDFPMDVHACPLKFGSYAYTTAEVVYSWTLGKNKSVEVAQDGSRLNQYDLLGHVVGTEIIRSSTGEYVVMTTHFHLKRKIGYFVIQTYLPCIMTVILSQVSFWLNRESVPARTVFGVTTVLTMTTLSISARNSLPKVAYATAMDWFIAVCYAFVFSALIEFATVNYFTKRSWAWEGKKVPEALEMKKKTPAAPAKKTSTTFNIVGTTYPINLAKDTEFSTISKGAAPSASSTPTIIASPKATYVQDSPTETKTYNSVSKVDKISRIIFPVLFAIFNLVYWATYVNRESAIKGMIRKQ

[7] = molecular target: GABA-A receptor; alpha-1/beta-3/gamma-2 (Homo sapiens) (UniProt P14867+P18507+P28472); experiment: Maximal response relative to Gamma-aminobutyric acid A against human Gamma-aminobutyric-acid A receptor alpha-1-beta-3-gamma-2 expressed in Xenopus oocytes; type: functional, cell-based; conditions: Oocyte
[8] = molecular target: T5, GABA-A receptor; alpha-6/beta-3/gamma-2 (Homo sapiens, UniProt P18507+P28472+Q16445); experiment: Maximal response relative to Gamma-aminobutyric acid A against human Gamma-aminobutyric-acid A receptor alpha-6-beta-3-gamma-2 expressed in Xenopus oocytes; type: functional, cell-based; conditions: Oocyte
T5 sequence (Q16445 whole entry, one chain of several): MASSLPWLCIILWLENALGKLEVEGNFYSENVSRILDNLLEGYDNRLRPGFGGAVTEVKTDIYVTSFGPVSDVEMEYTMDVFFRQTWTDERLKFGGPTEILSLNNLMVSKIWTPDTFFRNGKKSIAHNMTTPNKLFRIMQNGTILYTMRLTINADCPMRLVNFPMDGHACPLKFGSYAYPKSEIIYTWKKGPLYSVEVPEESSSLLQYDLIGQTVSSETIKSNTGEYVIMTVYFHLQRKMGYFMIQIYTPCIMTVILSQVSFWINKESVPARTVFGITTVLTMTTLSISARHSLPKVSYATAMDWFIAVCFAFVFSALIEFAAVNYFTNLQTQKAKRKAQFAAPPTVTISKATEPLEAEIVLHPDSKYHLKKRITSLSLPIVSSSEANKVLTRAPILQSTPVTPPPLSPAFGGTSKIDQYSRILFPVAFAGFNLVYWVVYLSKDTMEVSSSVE

[9] = molecular target: T6, GABA A receptor alpha-4/beta-3/gamma-2 (Homo sapiens, UniProt P18507+P28472+P48169); experiment: Effective agonist dose for human Gamma-aminobutyric acid A receptor alpha-4-beta-3-gamma-2; type: functional
T6 sequence (P48169 whole entry, one chain of several): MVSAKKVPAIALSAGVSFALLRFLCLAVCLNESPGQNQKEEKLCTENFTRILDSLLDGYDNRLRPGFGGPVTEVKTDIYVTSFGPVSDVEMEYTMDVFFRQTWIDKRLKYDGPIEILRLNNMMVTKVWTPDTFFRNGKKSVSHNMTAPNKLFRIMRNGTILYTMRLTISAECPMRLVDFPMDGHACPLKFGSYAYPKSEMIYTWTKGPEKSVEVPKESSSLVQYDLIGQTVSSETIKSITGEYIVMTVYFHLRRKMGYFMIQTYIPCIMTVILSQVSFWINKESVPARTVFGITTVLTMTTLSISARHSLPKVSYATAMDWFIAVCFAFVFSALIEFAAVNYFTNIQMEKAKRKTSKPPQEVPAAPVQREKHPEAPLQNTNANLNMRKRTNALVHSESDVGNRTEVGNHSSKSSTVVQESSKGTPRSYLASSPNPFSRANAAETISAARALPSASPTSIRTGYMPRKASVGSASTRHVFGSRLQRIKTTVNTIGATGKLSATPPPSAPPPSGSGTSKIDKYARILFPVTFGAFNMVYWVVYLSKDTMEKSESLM

[10] = molecular target: T6, GABA A receptor alpha-4/beta-3/gamma-2; experiment: Maximal response relative to Gamma-aminobutyric acid A against human Gamma-aminobutyric-acid A receptor alpha-4-beta-3-gamma-2 expressed in Xenopus oocytes; type: functional, cell-based; conditions: Oocyte
[11] = molecular target: T5, GABA-A receptor; alpha-6/beta-3/gamma-2; experiment: Effective agonist dose for human Gamma-aminobutyric acid A receptor alpha-6-beta-3-gamma-2; type: functional
[12] = molecular target: GABA-A receptor; alpha-2/beta-3/gamma-2 (Homo sapiens) (UniProt P18507+P28472+P47869); experiment: Maximal response relative to Gamma-aminobutyric acid A against human Gamma-aminobutyric-acid A receptor alpha-2-beta-3-gamma-2 expressed in Xenopus oocytes; type: functional, cell-based; conditions: Oocyte
[13] = molecular target: T4, GABA-A receptor; alpha-3/beta-3/gamma-2; experiment: Agonist activity on human Gamma-aminobutyric acid A receptor alpha-3-beta-3-gamma-2 expressed in Xenopus oocytes; type: functional, cell-based, Oocyte
[14] = molecular target: T1, GABA-A receptor; alpha-1/beta-3/gamma-2; experiment: Antagonistic potency against human Gamma-aminobutyric acid A receptor alpha-1-beta-3-gamma-2 expressed in Xenopus oocytes at 1 mM; type: functional, cell-based, Oocyte
[15] = molecular target: T4, GABA-A receptor; alpha-3/beta-3/gamma-2; experiment: Antagonistic potency against human Gamma-aminobutyric acid A receptor alpha-3-beta-3-gamma-2 expressed in Xenopus oocytes at 1 mM; type: functional, cell-based, Oocyte
[16] = molecular target: T3, GABA-A receptor; alpha-2/beta-3/gamma-2; experiment: Antagonistic potency against human Gamma-aminobutyric acid A receptor alpha-2-beta-3-gamma-2 expressed in Xenopus oocytes at 1 mM; type: functional, cell-based, Oocyte
[17] = molecular target: T6, GABA A receptor alpha-4/beta-3/gamma-2; experiment: Antagonistic potency against human […] Gamma-aminobutyric acid A receptor alpha-4-beta-3-gamma-2; type: functional
[18] = molecular target: T2, GABA-A receptor; alpha-5/beta-3/gamma-2; experiment: Antagonistic potency against human Gamma-aminobutyric acid A receptor alpha-5-beta-3-gamma-2 expressed in Xenopus oocytes at 1 mM; type: functional, cell-based, Oocyte
[19] = molecular target: T5, GABA-A receptor; alpha-6/beta-3/gamma-2; experiment: Antagonistic potency against human Gamma-aminobutyric acid A receptor alpha-6-beta-3-gamma-2 expressed in Xenopus oocytes at 1 mM; type: functional, cell-based, Oocyte
[20] = molecular target: T3, GABA-A receptor; alpha-2/beta-3/gamma-2; experiment: Effective dose for agonist activity on human Gamma-aminobutyric acid A receptor alpha-2-beta-3-gamma-2 in Xenopus oocytes; type: functional, cell-based, Oocyte

Compound | EC50 [1] [µM] | EC50 [2] [µM] | Max [3] | Max [4] | EC50 [5] [µM] | EC50 [6] [µM] | Max [7] | Max [8] | EC50 [9] [µM] | Max [10] | EC50 [11] [µM] | Max [12] | EC50 [13] [µM] | Ki [14] [µM] | Ki [15] [µM] | Ki [16] [µM] | Ki [17] [µM] | Ki [18] [µM] | Ki [19] [µM] | EC50 [20] [µM]
O=C(O)C1CCNCC1 [ISONIPECOTIC ACID] | 620 | 690 | 46 | 57 | 420 | 370 | 46 | 83 | 300 | 104 | 160 | 53 | – | – | – | – | – | – | – | –
NCCCC(=O)O | – | – | 100 | 100 | – | – | 100 | 100 | – | 100 | – | 100 | – | – | – | – | – | – | – | –
NCCC[Se](=O)O | 1400 | 1900 | 33 | 58 | 1500 | – | 30 | 51 | 2100 | 16 | 3000 | 47 | 4900 | – | – | – | – | – | – | –
CP(=O)(O)C1CCNCC1 | – | – | – | – | – | – | – | – | – | – | – | – | – | 310 | 300 | 600 | 340 | 420 | 460 | –
O=P(O)(O)C1CCNCC1 | – | – | – | – | – | – | – | – | – | – | – | – | – | 3300 | 3800 | 2100 | 3100 | 2800 | 4800 | –
O=C(O)C1=CCNCC1 [ISOGUVACINE] | 160 | 75 | 69 | 94 | 50 | – | 88 | 98 | 180 | 88 | 20 | 88 | 55 | – | – | – | – | – | – | –
O=[Se](O)C1CCNCC1 | 200 | 420 | 28 | 3 | – | – | 3 | 13 | 160 | 0 | 240 | 2 | 180 | – | – | – | – | – | – | 170
O=[PH](O)C1CCNCC1 | 270 | 260 | 29 | 17 | 280 | – | 5 | 35 | 140 | 0 | 140 | 17 | 160 | – | – | – | – | – | – | –
O=[PH](O)C1(O)CCNCC1 | – | – | – | – | – | – | – | – | – | – | – | – | – | 1400 | 4900 | 1500 | 2100 | 1900 | 3000 | –
O=C(O)Cc1c[nH]cn1 [IMIDAZOLE ACETIC ACID] | 310 | 420 | 54 | 56 | 600 | – | 24 | 25 | 340 | 27 | 460 | 72 | 300 | – | – | – | – | – | – | –
O=S(=O)(O)C1CCNCC1 | 40 | 20 | 75 | 92 | 26 | – | 21 | 15 | 200 | 7.2 | 20 | 96 | 65 | – | – | – | – | – | – | –
